Experimental data from US20240002470A1, “Method for separation and/or detection and/or in vitro quantification of infectious compounds in biological material” (priority 2020, published 2024).

Legend:
Assay type in all cases: binding
[1] = test system: HCV virus (hepatitis C virus); experiment: Capture of HCV virus from patient plasma on magnetic microbeads coated with pepβ2GPI, RT-PCR quantification; conditions: for HCV/run copies: per run, virus captured on coated beads from plasma of patients
Description: The pepβ2GPI were grafted onto the microbeads according to the supplier's recommendations. In summary, the microbeads are suspended in phosphate buffer at a pH of 6.0. The beads are then activated, for 15 minutes, in the presence of 1-ethyl-3-(3-Dimethylaminopropyl) carbodiimide and N-hydroxysuccinimide. After washing with HCl, 2 mM, the beads are suspended in a phosphate buffer at a pH of 7.5, containing the pepβ2GPI. The concentration of pepβ2GPI in this coupling buffer is 20 mg/L; the microbeads are incubated in the buffer with gentle and constant shaking at a temperature of 25° C. for 3 hours. The microbeads are then centrifuged at 1,500 rpm and the supernatant is removed; the centrifugation pellet is suspended in the same buffer as that used for the coupling of pepβ2GPI, which forms the suspension of microbeads coated with pepβ2GPI which we want to test.
One hundred microliters of viral culture supernatant to be studied are placed in an Eppendorf tube with 900 microliters of Tris buffer at a pH of 7.5 and 10 microliters of microbeads. The tubes are shaken horizontally to mix the microbeads well, and each tube is incubated at 37° C. or at room temperature (RT=22° C.) for 30 minutes. In each tube, the microbeads are then separated from the liquid phase by means of a magnet, placed externally against the wall of the tube, and the viral RNA is extracted. The beads are brought into contact with a viral lysis buffer, included in an RNA extraction kit: QIAamp RNA viral kit, sold by QIAGEN and the viral RNA is isolated according to the seller's recommendations.
The virus used is the HCV virus (hepatitis C virus), present in the plasma of patients. The same protocol as described in example 1 was carried out.

[2] = test system: endogenous human retrovirus antigen (HERV), envelope protein of HERV-W; experiment: Capture of HERV antigen from serum on ELISA-type microtiter plates
Description: The desired compound is an endogenous human retrovirus antigen (HERV: human endogenous retrovirus). Their research was carried out on serum from patients with autoimmune pathologies as well as on serum from healthy donors.
The support used is a microtiter plate of the ELISA type, with 96 wells and flat bottom, sold by the company “DYNATECH”. Four samples of serum from healthy donors and four samples from patients with autoimmune disease were used.
The serum sample is diluted ten times in 50 mM Tris-HCl buffer, pH 7.6±0.05.
100 μl of this solution are placed at the bottom of each well of the microplate.
This is then incubated at +37° C. for 90 minutes. The liquid from each well is then aspirated. Then 300 to 400 μl of phosphate buffer containing 0.01 mole/I of sodium and disodium phosphates and 0.15 mole/I of sodium chloride and having a pH of 7.00±0.05 are introduced into each well.
It is left in contact with the support for 3 minutes and the buffer is aspirated; this washing operation is carried out three times.
Next, 100 μl of a specific murine monoclonal antibody solution directed against the envelope protein of the endogenous HERV-W retrovirus is added per well.
The plate is left at 37° C. for 60 minutes.
(§1) Following this incubation, the contents of the wells of the plate are aspirated. 300 to 400 μl of phosphate buffer, described above, are introduced into each well, and after a contact time of 3 minutes, the buffer is aspirated; this washing operation is carried out three times.
as §1, with “Then, 100 μL of a solution of a polyclonal antibody recognizing the murine antibodies are added per well. The plate is left at 37° C. for 60 minutes. Following” for “Following”, “six” for “three”
100 μl of a solution of o-phenylene diamine, 2HCl in a sodium citrate buffer are added per well. It is left to incubate for 30 minutes at room temperature, then the reaction is stopped by adding to each well 50 μl of 2N H2 SO4. The absorbance at 492 nm obtained at the end of the reaction is measured using a plate reader robot.
Results in the following table are expressed in P/2N, P corresponding to the average of the absorbances obtained for a given serum and N corresponding to the average of the absorbances obtained from healthy donors, multiplied by 2.

SCN = experiment: Capture from blood culture on magnetic microbeads, culture on TS agar: SCN
Description: The beads, on which β2GPI and peptides derived therefrom were grafted, were used for the capture of bacteria present in human blood and highlighted by blood culture.
These blood cultures are carried out by placing a venous blood sample […] in aerobic vials of BacT/ALERT®3D type. These flasks are then incubated in an automated system at 35° C. for at least 5 days. The bottles are equipped with a colorimetric detection system with a sensor located at the base of each bottle. Carbon dioxide produced by growing bacteria changes the color of the sensor; this change in color is detected by an automated system and indicates the presence of bacterial growth: these blood cultures are said to be positive. In the BacT/ALERT®3D vials there are particles of activated carbon, which inhibit antibiotics potentially present in the blood of patients, thereby improving the detection of microorganisms. To confirm the presence of bacteria in blood cultures which have been found positive, the hospital performs a culture on blood agar. […]
To test the interaction of microbeads coated with β2GPI and the peptides derived from them, with bacteria present in the blood, 1 ml of blood culture is taken from each sample and placed in a 15 ml tube. […] The bacteria that have grown on the agar were then counted.

[3] = serum 6s (patient with autoimmune pathology)
[4] = serum 45s (patient with autoimmune pathology)
[5] = serum 99s (patient with autoimmune pathology)
[6] = serum 100s (patient with autoimmune pathology)

Molecule: H-((SSLAFWK)2-K)2-K—NH2 [Peptide P11]
- % compared to β2GPI ([1]; HCV copies captured relative to β2GPI beads): (86%)
- HCV/run copies [1]: 97 copies
- P/2N [2, 3]: 1.185
- P/2N [2, 4]: 1.228
- P/2N [2, 5]: 0.977
- P/2N [2, 6]: 4.039
- P/2N ([2]; serum DS 45s (healthy donor)): 0.77
- P/2N ([2]; serum DS 46s (healthy donor)): 0.718
- P/2N ([2]; serum DS 60s (healthy donor)): 0.631
- P/2N ([2]; serum DS 61s (healthy donor)): 0.727
- % compared to β2GPI (SCN): 101%

B1: β2GPI: plasma glycoprotein called β2-glycoprotein I, grafted on beads as the reference (protein, UniProt P02749 20-345, looked up)
Beta-2-glycoprotein 1: GRTCPKPDDLPFSTVVPLKTFYEPGEEITYSCKPGYVSRGGMRKFICPLTGLWPINTLKCTPRVCPFAGILENGAVRYTTFEYPNTISFSCNTGFYLNGADSAKCTEEGKWSPELPVCAPIICPPPSIPTFATLRVYKPSAGNNSLYRDTAVFECLPQHAMFGNDTITCTTHGNWTKLPECREVKCPFPSRPDNGFVNYPAKPTLYYKDKATFGCHDGYSLDGPEEIECTKLGNWSAMPSCKASCKVPVKKATVVYQGERVKIQEKFKNGMLHGDKVSFFCKNKEKKCSYTEDAQCIDGTIEVPKCFKEHSSLAFWKTDASDVKPC
modifications: grafted on beads
- HCV/run copies [1]: 113 copies
- P/2N [2, 3]: 0.928
- P/2N [2, 4]: 1.112
- P/2N [2, 5]: 0.974
- P/2N [2, 6]: 4.9
- P/2N ([2]; serum DS 45s (healthy donor)): 0.69
- P/2N ([2]; serum DS 46s (healthy donor)): 0.79
- P/2N ([2]; serum DS 60s (healthy donor)): 0.637
- P/2N ([2]; serum DS 61s (healthy donor)): 0.498
- % compared to β2GPI (SCN): 100%
